# In the supplement of paper PMC10307832:
# Compound: Cn1cnc2c(F)c(Nc3ccc(Br)cc3Cl)c(C(=O)NOCCO)cc21 [Selumetinib] + O=C(c1cc(Cc2n[nH]c(=O)c3ccccc23)ccc1F)N1CCN(C(=O)C2CC2)CC1 [Olaparib] (partner 8 µM)
# Experiment: relative viability (nuclei count vs DMSO), 5 days (fraction); higher = more cells survive
# Conditions: first compound 0.02 µM
# Procedure, shortened: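 Lung cancer cell lines were seeded in 1536-well plates and dosed by pin tool the next day, with either a single drug or a fixed anchor-drug dose combined with five library-drug doses (not always all listed) spaced in √10 steps. Five days later, one step fixed the cells and stained their nuclei (final 0.05% Triton X-100, 1% formaldehyde, 1 ug/ml Hoechst), and nuclei were counted on 4× images. Relative viability is the nuclei count in treated wells divided by the count in vehicle wells, and each value is the median of duplicate plates.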
row,Cell Line,relative viability
1,Calu-6,0.62
2,HCC-44,0.988
3,NCI-H1734,0.604
4,NCI-H650,0.478
5,LK-2,0.811
6,NCI-H2228,0.754
7,NCI-H2342,0.403
8,SK-MES-1,0.728
9,HARA,0.768
10,COR-L23,0.404
11,COR-L 105,0.73
12,LC-2-ad,0.8
13,LXF-289,1.04
14,ChaGo-K-1,0.43
15,NCI-H2170,0.62
16,NCI-H322M,0.662
17,IA-LM,1.09
18,HCC-78,0.904
19,A549,0.284
20,SW 900,0.96
21,NCI-H1299,1.08

row,Cell Line,relative viability
1,BEN,1.13
2,HCC-15,0.694
3,HCC-827,0.705
4,NCI-H460,0.433
5,LU99A,0.253
6,NCI-H2085,0.704
7,A-427,0.724
8,NCI-H520,0.331
9,NCI-H838,0.727
10,NCI-H1792,0.256
11,NCI-H596,0.596
12,NCI-H3122,0.609
13,NCI-H1395,0.452
14,201T,0.781
15,NCI-H1993,1.16
16,HOP-62,0.474
17,NCI-H1355,0.696
18,NCI-H2405,0.85
19,NCI-H1437,0.665
20,NCI-H661,0.808
21,CAL-12T,0.678

row,Cell Line,relative viability
1,NCI-H1703,0.521
2,H3255,0.554
3,NCI-H2347,0.386
4,NCI-H1975,0.799
5,NCI-H441,0.613
6,NCI-H1650,0.669
7,NCI-H1915,0.259
8,NCI-H2087,0.527
9,HCC-366,0.415
10,NCI-H1793,0.765
11,RERF-LC-KJ,0.878
12,EKVX,0.777
13,LCLC-103H,0.656
14,NCI-H1651,0.189
15,NCI-H1944,0.394
16,NCI-H2009,0.775
17,SW 1573,0.479
18,ABC-1,0.885
19,NCI-H358,0.463
20,NCI-H727,0.665
21,SK-LU-1,0.467

# Same assay, conditions: first compound 0.06325 µM
row,Cell Line,relative viability
1,NCI-H522,0.74
2,PC-14,0.226
3,NCI-H1666,0.711
4,EBC-1,0.66
5,NCI-H1755,0.787
6,NCI-H2023,0.467
7,EPLC-272H,0.512
8,LCLC-97TM1,0.407
9,PC-3 [JPC-3],1.07
10,LOU-NH91,0.845
11,NCI-H647,0.605
12,NCI-H23,0.312
13,EMC-BAC-2,0.657
14,NCI-H2126,0.833
15,Calu-6,0.489
16,HCC-44,0.997
17,NCI-H1734,0.391
18,NCI-H650,0.514
19,LK-2,0.842
20,NCI-H2228,0.69
21,NCI-H2342,0.4
22,SK-MES-1,0.779
23,HARA,0.727
24,COR-L23,0.385
25,COR-L 105,0.727
26,LC-2-ad,0.503

row,Cell Line,relative viability
1,LXF-289,1.01
2,ChaGo-K-1,0.414
3,NCI-H2170,0.594
4,NCI-H322M,0.63
5,IA-LM,0.531
6,HCC-78,0.738
7,A549,0.295
8,SW 900,0.798
9,NCI-H1299,1.08
10,BEN,1.08
11,HCC-15,0.622
12,NCI-H1648,0.914
13,HCC-827,0.672
14,NCI-H460,0.384
15,LU99A,0.265
16,NCI-H2085,0.771
17,A-427,0.771
18,NCI-H520,0.349
19,NCI-H838,0.67
20,NCI-H1792,0.353
21,NCI-H596,0.663
22,NCI-H3122,0.571
23,NCI-H1395,0.488
24,201T,0.791
25,NCI-H1993,0.808
26,HOP-62,0.397

row,Cell Line,relative viability
1,NCI-H1355,0.614
2,NCI-H2405,0.762
3,NCI-H1437,0.58
4,NCI-H661,0.722
5,CAL-12T,0.651
6,NCI-H1703,0.411
7,H3255,0.586
8,NCI-H2347,0.467
9,NCI-H1975,0.88
10,NCI-H441,0.609
11,NCI-H1650,0.654
12,NCI-H1915,0.248
13,NCI-H2087,0.38
14,HCC-366,0.296
15,NCI-H1793,0.531
16,RERF-LC-KJ,0.896
17,EKVX,0.741
18,LCLC-103H,0.703
19,NCI-H1651,0.201
20,NCI-H1944,0.386
21,NCI-H2009,0.6
22,SW 1573,0.403
23,ABC-1,0.726
24,NCI-H358,0.367
25,NCI-H727,0.558
26,SK-LU-1,0.459

# Same assay, conditions: first compound 0.2 µM
row,Cell Line,relative viability
1,NCI-H522,0.542
2,PC-14,0.252
3,NCI-H1666,0.715
4,EBC-1,0.599
5,NCI-H1755,0.807
6,NCI-H2023,0.454
7,EPLC-272H,0.519
8,LCLC-97TM1,0.3
9,PC-3 [JPC-3],0.992
10,LOU-NH91,0.864
11,NCI-H647,0.479
12,NCI-H23,0.267
13,EMC-BAC-2,0.674
14,NCI-H2126,0.813
15,Calu-6,0.421
16,HCC-44,0.983
17,NCI-H1734,0.557
18,NCI-H650,0.47
19,LK-2,0.818
20,NCI-H2228,0.685
21,NCI-H2342,0.43
22,SK-MES-1,0.695
23,HARA,0.651
24,COR-L23,0.414
25,COR-L 105,0.687
26,LC-2-ad,0.757

row,Cell Line,relative viability
1,LXF-289,0.963
2,ChaGo-K-1,0.398
3,NCI-H2170,0.649
4,NCI-H322M,0.564
5,IA-LM,0.587
6,HCC-78,0.723
7,A549,0.325
8,SW 900,0.788
9,NCI-H1299,1.11
10,BEN,1.14
11,HCC-15,0.575
12,NCI-H1648,0.742
13,HCC-827,0.681
14,NCI-H460,0.342
15,LU99A,0.287
16,NCI-H2085,0.689
17,A-427,0.802
18,NCI-H520,0.363
19,NCI-H838,0.652
20,NCI-H1792,0.439
21,NCI-H596,0.572
22,NCI-H3122,0.563
23,NCI-H1395,0.482
24,201T,0.79
25,NCI-H1993,0.876
26,HOP-62,0.421

row,Cell Line,relative viability
1,NCI-H1355,0.616
2,NCI-H2405,0.844
3,NCI-H1437,0.549
4,NCI-H661,0.696
5,CAL-12T,0.595
6,NCI-H1703,0.39
7,H3255,0.603
8,NCI-H2347,0.403
9,NCI-H1975,0.658
10,NCI-H441,0.517
11,NCI-H1650,0.712
12,NCI-H1915,0.214
13,NCI-H2087,0.322
14,HCC-366,0.198
15,NCI-H1793,0.421
16,RERF-LC-KJ,0.889
17,EKVX,0.643
18,LCLC-103H,0.66
19,NCI-H1651,0.182
20,NCI-H1944,0.359
21,NCI-H2009,0.608
22,SW 1573,0.368
23,ABC-1,0.737
24,NCI-H358,0.282
25,NCI-H727,0.383
26,SK-LU-1,0.401

# Same assay, conditions: first compound 0.6325 µM
row,Cell Line,relative viability
1,NCI-H522,0.581
2,PC-14,0.241
3,NCI-H1666,0.686
4,EBC-1,0.443
5,NCI-H1755,0.847
6,NCI-H2023,0.487
7,EPLC-272H,0.575
8,LCLC-97TM1,0.19
9,PC-3 [JPC-3],0.854
10,LOU-NH91,0.806
11,NCI-H647,0.643
12,NCI-H23,0.293
13,EMC-BAC-2,0.717
14,NCI-H2126,0.742
15,Calu-6,0.362
16,HCC-44,1.01
17,NCI-H1734,0.56
18,NCI-H650,0.526
19,LK-2,0.759
20,NCI-H2228,0.608
21,NCI-H2342,0.415
22,SK-MES-1,0.599
23,HARA,0.466
24,COR-L23,0.446
25,COR-L 105,0.582
26,LC-2-ad,0.672

row,Cell Line,relative viability
1,LXF-289,1.04
2,ChaGo-K-1,0.39
3,NCI-H2170,0.568
4,NCI-H322M,0.599
5,IA-LM,0.482
6,HCC-78,0.789
7,A549,0.265
8,SW 900,0.843
9,NCI-H1299,0.932
10,BEN,0.988
11,HCC-15,0.368
12,NCI-H1648,0.493
13,HCC-827,0.719
14,NCI-H460,0.225
15,LU99A,0.267
16,NCI-H2085,0.671
17,A-427,0.845
18,NCI-H520,0.3
19,NCI-H838,0.662
20,NCI-H1792,0.235
21,NCI-H596,0.599
22,NCI-H3122,0.565
23,NCI-H1395,0.46
24,201T,0.79
25,NCI-H1993,0.795
26,HOP-62,0.353

row,Cell Line,relative viability
1,NCI-H1355,0.534
2,NCI-H2405,0.581
3,NCI-H1437,0.47
4,NCI-H661,0.727
5,CAL-12T,0.564
6,NCI-H1703,0.605
7,H3255,0.536
8,NCI-H2347,0.355
9,NCI-H1975,0.582
10,NCI-H441,0.444
11,NCI-H1650,0.646
12,NCI-H1915,0.192
13,NCI-H2087,0.243
14,HCC-366,0.19
15,NCI-H1793,0.39
16,RERF-LC-KJ,0.892
17,EKVX,0.629
18,LCLC-103H,0.663
19,NCI-H1651,0.171
20,NCI-H1944,0.318
21,NCI-H2009,0.316
22,SW 1573,0.437
23,ABC-1,0.768
24,NCI-H358,0.207
25,NCI-H727,0.431
26,SK-LU-1,0.335
